# Experimental data from patent publication US20070122429A1, “Designed antigens to elicit neutralizing antibodies against sterically restricted antigen and method of using same” (priority 2005, published 2007).
# Where no end group is shown, it is not given here. MBP = not defined here
# How the values were obtained:
# IZN36-MBP = experiment: co-precipitation with biotinylated IZN36-MBP on streptavidin beads; format: binding; conditions: SDS-PAGE
# Experimental: This mixture is then added to magnetic streptavidin beads (Dynal), which bind to the biotinylated IZN36-MBP.
# HXB2 Env = biological target: T1, HXB2 Env (Human immunodeficiency virus type 1 group M subtype B, UniProt P04578); format: cell-based, HIV-1; conditions: range over cell-cell fusion and viral infectivity assays
# T1 construct: expressed in transfected cells; host or cells: Chinese hamster ovary cells expressing HXB2 Env, mixed with HeLa-CD4-LTR-β-galactosidase cells
# Experimental: Cell-cell fusion was monitored. HXB2 Env-expressing Chinese hamster ovary cells were mixed with HeLa-CD4-LTR-β-galactosidase cells in the presence of inhibitors for 20 h at 37° C. Syncytia were stained with 5-bromo-4-chloro-3-indolyl-β-D-galactopyranoside (X-gal) and counted.
# Viral infectivity was measured by the following method: pseudotyped viruses were produced by co-transfecting 293T cells using FuGENE (Roche Applied Science) with pNL4-3.Luc.R-E- and either pEBB-HXB2 or pEBB-JRFL. After 36-48 h, viral supernatants were collected and sterile filtered. HXB2 or JRFL pseudotyped virus was added to HOS-CD4-fusin or HOS-CD4-CCR5 cells, respectively, in the presence of inhibitors. HXB2 assays included 20 μg/ml DEAE-dextran. After 12 h, virus and inhibitor were removed and replaced with fresh media. Cells were lysed 40-44 h after infection using Glo lysis buffer (Promega), and luciferase activity was measured using Bright-Glo (Promega). IC50 values for both assays were calculated by fitting data to the equation, y=k/(1+[inhibitor]/IC50), where y is the normalized number of syncytia or luciferase activity and k is the scaling constant.
substance,measurement,setting,value
MBP-C37: Escherichia coli maltose-binding protein fused by Ser5Gly2 linker to C37 ({MBP}-SSSSSGGHTTWMEWDREINNYTSLIHSLIEESQNQQEKNEQELLHHHHHH; reading uncertain; also: fused to maltose-binding protein (not in chain)),binding to IZN36-MBP,IZN36-MBP,reduced binding
same,reduction in potency relative to C37,HXB2 Env,75-228 fold
